Source: ChEMBL document CHEMBL3044753, “Polyamines May Modulate Both G Protein-Coupled Receptors and G Proteins” (Med Chem Res, 2004)
Activity calls are given as the source filed them. The calls are words filed in the database; no cut-off is given here.

Legend:
[1] = tested on: Right cardiac atrium; assay: Reversible negative ionotropic activity in electrically-paced Cavia porcellus (guinea pig) right atrium incubated for 30 min followed by compound-washout measured after 3 hr by isometric transducer analysis; format: functional, tissue-based
[2] = tested on: Right cardiac atrium; assay: Negative ionotropic activity in electrically-paced Cavia porcellus (guinea pig) right atrium measured after 60 min by isometric transducer analysis in presence of ANR 83; format: functional, tissue-based
[3] = target: T1, Muscarinic acetylcholine receptor M4 (Homo sapiens) (UniProt P08173); assay: Binding affinity to Homo sapiens (human) recombinant muscarinic M4 receptor expressed in CHO cells assessed as [35S]GTPgammaS binding; format: functional, cell-based
T1 sequence (whole entry): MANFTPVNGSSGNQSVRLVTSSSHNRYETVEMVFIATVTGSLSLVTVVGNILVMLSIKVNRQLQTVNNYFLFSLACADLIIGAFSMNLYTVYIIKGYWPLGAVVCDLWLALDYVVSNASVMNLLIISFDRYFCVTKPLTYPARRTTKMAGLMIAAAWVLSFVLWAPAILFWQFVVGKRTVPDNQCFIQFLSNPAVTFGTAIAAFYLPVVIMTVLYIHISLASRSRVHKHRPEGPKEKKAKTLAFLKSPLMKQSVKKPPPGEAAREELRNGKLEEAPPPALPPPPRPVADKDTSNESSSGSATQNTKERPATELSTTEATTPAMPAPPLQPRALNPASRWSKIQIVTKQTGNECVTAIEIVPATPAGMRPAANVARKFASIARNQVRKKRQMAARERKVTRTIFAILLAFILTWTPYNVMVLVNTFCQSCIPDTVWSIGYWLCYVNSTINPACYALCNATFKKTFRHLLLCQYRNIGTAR

[4] = tested on: Left cardiac atrium; assay: Negative ionotropic activity in electrically-paced Cavia porcellus (guinea pig) left atrium measured after 60 min by isometric transducer analysis in absence of benextramine/4-DAMP mustard relative to N-dodecyl lysine amide; format: functional
[5] = tested on: Left cardiac atrium; assay: Negative ionotropic activity in electrically-paced Cavia porcellus (guinea pig) left atrium measured after 60 min by isometric transducer analysis in presence of pimozide; format: functional, tissue-based
[6] = tested on: Right cardiac atrium; assay: Negative ionotropic activity in electrically-paced Cavia porcellus (guinea pig) right atrium measured after 60 min by isometric transducer analysis in presence of AM 630; format: functional, tissue-based
[7] = tested on: Left cardiac atrium; assay: Negative ionotropic activity in electrically-paced Cavia porcellus (guinea pig) left atrium measured after 60 min by isometric transducer analysis in presence of AM 251; format: functional, tissue-based
[8] = tested on: Left cardiac atrium; assay: Negative ionotropic activity in electrically-paced Cavia porcellus (guinea pig) left atrium measured after 60 min by isometric transducer analysis in presence of bupranolol; format: functional, tissue-based
[9] = tested on: Left cardiac atrium; assay: Negative ionotropic activity in electrically-paced Cavia porcellus (guinea pig) left atrium measured after 60 min by isometric transducer analysis in presence of thioperamide; format: functional, tissue-based
[10] = tested on: Right cardiac atrium; assay: Negative ionotropic activity in electrically-paced Cavia porcellus (guinea pig) right atrium measured after 60 min by isometric transducer analysis in presence of DPCPX; format: functional, tissue-based
[11] = tested on: Right cardiac atrium; assay: Negative ionotropic activity in electrically-paced Cavia porcellus (guinea pig) right atrium measured after 60 min by isometric transducer analysis in presence of prazosin; format: functional, tissue-based
[12] = tested on: Left cardiac atrium; assay: Negative ionotropic activity in electrically-paced Cavia porcellus (guinea pig) left atrium measured after 60 min by isometric transducer analysis in presence of prazosin; format: functional, tissue-based
[13] = tested on: Right cardiac atrium; assay: Negative ionotropic activity in electrically-paced Cavia porcellus (guinea pig) right atrium measured immediately by isometric transducer analysis in presence of prazosin; format: functional, tissue-based
[14] = tested on: Left cardiac atrium; assay: Negative […] activity in electrically-paced Cavia porcellus (guinea pig) left atrium measured immediately by isometric transducer analysis in presence of atropine; format: functional, tissue-based
[15] = tested on: Left cardiac atrium; assay: Negative […] activity in electrically-paced Cavia porcellus (guinea pig) left atrium measured immediately by isometric transducer analysis in presence of benextramine; format: functional, tissue-based
[16] = tested on: Left cardiac atrium; assay: Negative ionotropic activity in electrically-paced Cavia porcellus (guinea pig) left atrium measured immediately by isometric transducer analysis in presence of AM 630; format: functional, tissue-based
[17] = tested on: Left cardiac atrium; assay: Negative ionotropic activity in electrically-paced Cavia porcellus (guinea pig) left atrium measured immediately by isometric transducer analysis in presence of 4-DAMP mustard; format: functional, tissue-based
[18] = tested on: Right cardiac atrium; assay: Negative ionotropic activity in electrically-paced Cavia porcellus (guinea pig) right atrium measured immediately by isometric transducer analysis in presence of bupranolol; format: functional, tissue-based
[19] = tested on: Left cardiac atrium; assay: Negative […] activity in electrically-paced Cavia porcellus (guinea pig) left atrium measured immediately by isometric transducer analysis in presence of benzalkonium; format: functional, tissue-based
[20] = tested on: Right cardiac atrium; assay: Negative […] activity in electrically-paced Cavia porcellus (guinea pig) right atrium measured immediately by isometric transducer analysis in presence of DPCPX; format: functional, tissue-based
[21] = tested on: Right cardiac atrium; assay: Negative […] activity in electrically-paced Cavia porcellus (guinea pig) right atrium measured immediately by isometric transducer analysis in presence of 4-DAMP mustard; format: functional, tissue-based
[22] = tested on: Left cardiac atrium; assay: Negative […] activity in electrically-paced Cavia porcellus (guinea pig) left atrium measured immediately by isometric transducer analysis in presence of naloxane; format: functional, tissue-based
[23] = tested on: Right cardiac atrium; assay: Negative […] activity in electrically-paced Cavia porcellus (guinea pig) right atrium assessed as effect on rate measured immediately by isometric transducer analysis in presence of benzalkonium/prazosin; format: functional, tissue-based
[24] = tested on: Left cardiac atrium; assay: Negative ionotropic activity in electrically-paced Cavia porcellus (guinea pig) left atrium measured immediately by isometric transducer analysis in absence of benzalkonium/prazosin relative to arecaidine propargyl ester; format: functional
[25] = tested on: Left cardiac atrium; assay: Negative […] activity in electrically-paced Cavia porcellus (guinea pig) left atrium measured immediately by isometric transducer analysis in presence of benzalkonium/prazosin relative to arecaidine propargyl ester; format: functional
[26] = tested on: Right cardiac atrium; assay: Negative […] activity in electrically-paced Cavia porcellus (guinea pig) right atrium measured immediately by isometric transducer analysis in presence of atropine; format: functional, tissue-based
[27] = tested on: Right cardiac atrium; assay: Negative […] activity in electrically-paced Cavia porcellus (guinea pig) right atrium measured immediately by isometric transducer analysis in presence of benextramine; format: functional, tissue-based
[28] = tested on: Right cardiac atrium; assay: Negative […] activity in electrically-paced Cavia porcellus (guinea pig) right atrium measured immediately by isometric transducer analysis in presence of AM 251; format: functional, tissue-based
[29] = tested on: Right cardiac atrium; assay: Negative […] activity in electrically-paced Cavia porcellus (guinea pig) right atrium assessed as effect on rate measured immediately by isometric transducer analysis in absence of benzalkonium/prazosin; format: functional, tissue-based
[30] = tested on: Right cardiac atrium; assay: Negative […] activity in electrically-paced Cavia porcellus (guinea pig) right atrium measured immediately by isometric transducer analysis in presence of […]; format: functional, tissue-based
[31] = tested on: Right cardiac atrium; assay: Negative ionotropic activity in electrically-paced Cavia porcellus (guinea pig) right atrium measured immediately by isometric transducer analysis in presence of dihydroergocristine; format: functional, tissue-based
[32] = tested on: Right cardiac atrium; assay: Negative […] activity in electrically-paced Cavia porcellus (guinea pig) right atrium measured immediately by isometric transducer analysis in presence of ANR 83; format: functional, tissue-based
[33] = tested on: Right cardiac atrium; assay: Negative […] activity in electrically-paced Cavia porcellus (guinea pig) right atrium measured immediately by isometric transducer analysis in presence of AM 630; format: functional, tissue-based
[34] = tested on: Left cardiac atrium; assay: Negative […] activity in electrically-paced Cavia porcellus (guinea pig) left atrium measured immediately by isometric transducer analysis in presence of pimozide; format: functional, tissue-based
[35] = tested on: Left cardiac atrium; assay: Negative […] activity in electrically-paced Cavia porcellus (guinea pig) left atrium measured immediately by isometric transducer analysis in presence of thioperamide; format: functional, tissue-based
[36] = tested on: Right cardiac atrium; assay: Reversible negative ionotropic activity in electrically-paced Cavia porcellus (guinea pig) right atrium incubated for few seconds followed by compound washout measured after 3 hr by isometric transducer analysis in absence of benzalkonium/prazosin; format: functional, tissue-based
[37] = tested on: Right cardiac atrium; assay: Negative ionotropic activity in electrically-paced Cavia porcellus (guinea pig) right atrium measured immediately by isometric transducer analysis in presence of thioperamide; format: functional, tissue-based

In the case of `COc1ccccc1CN1CCC(C2CCN(CCCCCCCCN3CCC(C4CCN(Cc5ccccc5OC)CC4)CC3)CC2)CC1` [PIPERTRAMINE], the Activity [1] is reported as “inactive”, the Activity [2] is reported as “Active” and the Activity [3] is reported as “inactive”. For the same compound, the Efficacy [4] was 96%, the Activity [5] was “Active” and the Activity [6] was “Active”. For the same compound, the Activity [7] was “Active”, the Activity [8] was “Active” and the Activity [9] was “Active”. The Activity [10] was “Active”, the Activity [11] was “Active” and the Activity [12] was “Active”.
With `COc1ccccc1CN1CCC(C2CCN(C(=O)CCCCCCC(=O)N3CCC(C4CCN(Cc5ccccc5OC)CC4)CC3)CC2)CC1` [PIPERTRAMINE AMIDE] the Activity [13] was “Active”, the Activity [14] was “inactive” and the Activity [15] was “Active”. For the same compound, the Activity [1] was “inactive”, the Activity [2] was “Active” and the Activity [16] was “Active”. For the same compound, the Activity [17] was “inactive”, the Activity [18] was “Active” and the Activity [19] was “Active”. The Activity [3] was “inactive”, the Activity [20] was “Active” and the Activity [21] was “inactive”. The Activity [22] was “Active”, the EC50 [23] was 1.51 nM and the Efficacy [24] was 58%. The Efficacy [4] was 90%, the Activity [5] was “Active” and the Efficacy [25] was 60%. The Activity [26] was “inactive”, the Activity [6] was “Active” and the Activity [27] was “Active”. For the same compound, the Activity [28] was “Active”, the Activity [7] was “Active” and the EC50 [29] was 0.977 nM. For the same compound, the Activity [8] was “Active”, the Activity [30] was “Active” and the Activity [9] was “Active”. For the same compound, the Activity [31] was “Active”, the Activity [32] was “Active” and the Activity [33] was “Active”. The Activity [34] was “Active”, the Activity [10] was “Active” and the Activity [11] was “Active”. For the same compound, the Activity [35] was “Active”, the Activity [12] was “Active” and the Activity [36] was “Active”. For the same compound, the Activity [37] was “Active”.
